The values that follow come from US4062853A, “Chloro-pyridinyloxymethyl esters of thiocyanic acid” (The Dow Chemical Company, priority 1973, dated 1977).

What all share (format): cell-based
In one experiment the test system is Candida albicans. Nature of the experiment: conventional agar dilution test, fungicidal activity, Candida albicans. The conditions noted are these: complete growth inhibition, read-out: Minimum Inhibitory Concentration. An excerpt:
(§1) In representative operations, the products of the invention when tested for fungicidal activity using conventional agar dilution tests gave complete growth inhibition against the following organisms at the indicated concentrations in parts per million: […]
(In agar dilution the substance is mixed into plates at graded concentrations.)

The subject of experiment [1] is Trichophyton mentagrophytes. Nature of the experiment: conventional agar dilution test, fungicidal activity, Trichophyton mentagrophytes. The conditions noted are these: complete growth inhibition, read-out: Minimum Inhibitory Concentration.
Description: as §1

The test system of another experiment is Candida pelliculosa. Nature of the experiment: conventional agar dilution test, fungicidal activity, Candida pelliculosa. The conditions noted are these: Hansenula anomala, complete growth inhibition, read-out: Minimum Inhibitory Concentration.
Description: as §1

The next experiment has as its system Pullularia pullulans. Nature of the experiment: conventional agar dilution test, fungicidal activity, Pullularia pullulans. The following applies: complete growth inhibition, read-out: Minimum Inhibitory Concentration.
Description: as §1

The test system of another experiment is Ceratocystis ips. Put plainly: conventional agar dilution test, fungicidal activity, Ceratocystis ips. The following applies: complete growth inhibition, read-out: Minimum Inhibitory Concentration.
Description: as §1

In the next experiment the test system is Trichoderma sp. 42. Nature of the experiment: conventional agar dilution test, fungicidal activity, Trichoderma sp. 42. The following applies: complete growth inhibition, read-out: Minimum Inhibitory Concentration.
Description: as §1

Another experiment has as its system Aspergillus terreus. Nature of the experiment: conventional agar dilution test, fungicidal activity, Aspergillus terreus. The following applies: complete growth inhibition, read-out: Minimum Inhibitory Concentration.
Description: as §1

For a further experiment, the system named is Rhizopus nigricans. Put plainly: conventional agar dilution test, fungicidal activity, Rhizopus nigricans. The following applies: Rhizopus stolonifer, complete growth inhibition, read-out: Minimum Inhibitory Concentration.
Description: as §1

≈ marks a conversion by molar mass, not a printed value.

Turning to `N#CSCOc1nc(Cl)c(Cl)cc1Cl` [I, [(3,5,6-trichloro-2-pyridinyl)oxy]methyl thiocyanate], the MIC was found to be 10 µg/mL (≈ 37.1 µM) in the experiment with Candida albicans; 1 µg/mL (≈ 3.71 µM) in experiment [1]; 10 µg/mL (≈ 37.1 µM) in the experiment with Candida pelliculosa; 10 µg/mL (≈ 37.1 µM) in the experiment on Pullularia pullulans; 1 µg/mL (≈ 3.71 µM) in the experiment with Ceratocystis ips; 10 µg/mL (≈ 37.1 µM) in the experiment on Trichoderma sp. 42. The MIC with Aspergillus terreus was 1 µg/mL (≈ 3.71 µM); in the experiment with Rhizopus nigricans, 10 µg/mL (≈ 37.1 µM).
With `N#CSCOc1c(Cl)c(Cl)nc(Cl)c1Cl` [II, Thiocyanic acid, [(2,3,5,6-tetrachloro-4-pyridinyl)oxy]-methyl ester], the MIC is more than 100 µg/mL with Candida albicans; 1 µg/mL (≈ 3.29 µM) in experiment [1]; more than 100 µg/mL in the experiment with Candida pelliculosa; 100 µg/mL (≈ 329 µM) in the experiment on Pullularia pullulans; 10 µg/mL (≈ 32.9 µM) with Ceratocystis ips; more than 100 µg/mL in the experiment with Trichoderma sp. 42. Further, the results for the MIC in the experiment on Aspergillus terreus and with Rhizopus nigricans were 10 µg/mL (≈ 32.9 µM) and more than 100 µg/mL, respectively.
On to `N#CSCOc1c(Cl)cnc(Cl)c1Cl` [III, Thiocyanic acid, [(2,3,5-trichloro-4-pyridinyl)oxy]methyl ester], for which the MIC turned out to be 10 µg/mL (≈ 37.1 µM) in the experiment on Candida albicans; 1 µg/mL (≈ 3.71 µM) in experiment [1]; 10 µg/mL (≈ 37.1 µM) in the experiment on Candida pelliculosa; 1 µg/mL (≈ 3.71 µM) in the experiment on Pullularia pullulans; 10 µg/mL (≈ 37.1 µM) in the experiment with Ceratocystis ips; 10 µg/mL (≈ 37.1 µM) with Trichoderma sp. 42. Further, the MIC in the experiment on Aspergillus terreus amounted to 1 µg/mL (≈ 3.71 µM); in the experiment with Rhizopus nigricans, 10 µg/mL (≈ 37.1 µM).
Turning to `N#CSCOc1nc(Cl)c(Cl)c(OCCl)c1Cl` [IV, Thiocyanic acid, [(3,5,6-trichloro-4-(chloromethoxy)-2-pyridinyl)oxy]methylester], the MIC with Candida albicans was found to be 10 µg/mL (≈ 29.9 µM); in experiment [1], 1 µg/mL (≈ 2.99 µM); in the experiment on Candida pelliculosa it was 10 µg/mL (≈ 29.9 µM); in the experiment on Pullularia pullulans, 10 µg/mL (≈ 29.9 µM); with Ceratocystis ips, 10 µg/mL (≈ 29.9 µM); in the experiment on Trichoderma sp. 42, 10 µg/mL (≈ 29.9 µM). The MIC with Aspergillus terreus is 10 µg/mL (≈ 29.9 µM); in the experiment on Rhizopus nigricans, 100 µg/mL (≈ 299 µM).
`N#CSCOc1nc(F)c(Cl)cc1Cl` [V, Thiocyanic acid, [(3,5-dichloro-6-fluoro-2-pyridinyl)oxy]methyl ester]: the MIC worked out at 10 µg/mL (≈ 39.5 µM) with Candida albicans; 1 µg/mL (≈ 3.95 µM) in experiment [1]; 10 µg/mL (≈ 39.5 µM) in the experiment on Candida pelliculosa; 10 µg/mL (≈ 39.5 µM) in the experiment with Pullularia pullulans; 10 µg/mL (≈ 39.5 µM) in the experiment with Ceratocystis ips; 10 µg/mL (≈ 39.5 µM) in the experiment on Trichoderma sp. 42. For the same molecule, the MIC in the experiment on Aspergillus terreus was found to be 1 µg/mL (≈ 3.95 µM); in the experiment on Rhizopus nigricans it was 10 µg/mL (≈ 39.5 µM).
As to `N#CSCOc1cc(C(Cl)(Cl)Cl)cc(Cl)n1` [VI, Thiocyanic acid [(6-chloro-4-(trichloromethyl)-2-pyridinyl)-oxy]methyl ester], the MIC with Candida albicans was determined as 100 µg/mL (≈ 314 µM); in experiment [1], 1 µg/mL (≈ 3.14 µM); with Candida pelliculosa it was 100 µg/mL (≈ 314 µM); in the experiment with Pullularia pullulans it was 10 µg/mL (≈ 31.4 µM); with Ceratocystis ips it was 10 µg/mL (≈ 31.4 µM); in the experiment with Trichoderma sp. 42 it was 100 µg/mL (≈ 314 µM). The MIC with Aspergillus terreus came out at 1 µg/mL (≈ 3.14 µM); in the experiment on Rhizopus nigricans, 100 µg/mL (≈ 314 µM).
